pIC50: −log10 of the molar value.
Columns and labels:
[1] = molecular target: T1, human eIF4E protein (Homo sapiens, UniProt P06730); assay: Biochemical competitive binding assay (TR-FRET competition, EDA-m7GDP-ATTO-647N probe); details: read-out: hEIF4E TR-FRET IC50
T1 construct: purchased Novus NBP-45314
Experimental: The potencies of compounds binding to human eIF4E protein were measured using a 384-well time-resolved fluorescence resonance energy transfer (TR-FRET) competition assay. The assay was performed in assay buffer containing 50 mM HTEPES pH 7.5, 100 mM KCl, 0.02% Tween-20, and 0.1 mg/mL bovine serum albumin (BSA). The reaction volume was 10 μL and each reaction contained 4 nM recombinant 6×HIS-tagged human EIF4E protein (Novus, NBP-45314), 5 nM EDA-m7GDP-ATTO-647N (Jena Bioscience, NU-827-647N), 2.5 nM Europium conjugated Anti-6×HIS antibody (PerkinElmer, AD0402) and varying concentrations of compound. The final DMSO concentration was […].
Compounds were prepared using 11-point, 4-fold serial dilutions in DMSO and 100 nL of diluted compounds were transferred to 384-well assay-ready plates. Recombinant human EIF4E protein at 2× final concentration (8 nM) was pre-incubated with Eu-anti-6×HIS antibody at 2× final concentration (5 nM) for 5 minutes, then 5 μL of the protein solution was added to assay-ready plates. The protein/compound mix was incubated for 15 minutes, after which 5 μL of a solution containing EDA-m7GDP-ATTO-647N probe at 2× final concentration (10 nM) was added. After a subsequent 15-minute incubation, time-resolved fluorescence of assay plates was measured using a Clariostar Plus microplate reader (BMG Labtech) and TR-FRET values were calculated by taking a ratio of the 665 to 620 wavelength signals. After normalization to the average of DMSO control and maximum inhibition control wells, concentration-response data were plotted and standard 4-parameter curve fitting (PEI Signals) was utilized to determine IC50 values.

[2] = tested on: COLO 205 colorectal tumor cells; assay: Tumor cell viability inhibition assay (CellTiter-Glo 2.0, 72 hours); type: cell-based; details: COLO 205 cell viability
Experimental: The effect of compound treatment on COLO 205 tumor cell viability was assessed using cellular ATP quantification methods (Promega CellTiter-Glo® 2.0, G9241), as follows. Test compounds were prepared using 11-point, 4-fold serial dilutions in DMSO and 100 nL of diluted compounds were transferred to 384-well assay-ready plates. COLO 205 (ATCC, CCL-222) colorectal tumor cells were seeded to assay-ready plates in RPMI-1640 medium supplemented with 10% FBS at 1500 cells in a volume of 33.5 microliters per well. After 72 hours of compound treatment, cellular ATP was assessed by CellTiter-Glo® 2.0 Cell Viability Assay method, according to the manufacturer's instructions. Luminescence was measured using a Clariostar Plus microplate reader (BMG Labtech) or equivalent. After normalization to the average of DMSO control and maximum inhibition control wells, concentration-response data were plotted and standard 4-parameter curve fitting (PEI Signals) was utilized to determine IC50

T1 sequence (P06730 whole entry): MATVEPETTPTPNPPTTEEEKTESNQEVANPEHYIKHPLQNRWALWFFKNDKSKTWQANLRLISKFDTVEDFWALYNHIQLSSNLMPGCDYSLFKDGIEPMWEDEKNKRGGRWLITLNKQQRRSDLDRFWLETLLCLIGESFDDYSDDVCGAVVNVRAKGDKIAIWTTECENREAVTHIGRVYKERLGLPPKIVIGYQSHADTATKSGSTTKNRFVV

| SMILES | pIC50 [1] | pIC50 ([2]; Homo sapiens, COLO 205, 72 h) | pIC50 [2] |
| --- | --- | --- | --- |
| Cc1cc(-c2cc(Cl)ccc2OCCn2c(C)nc3c(c2=O)C[C@H](N2CC[C@H](C(F)F)C2)CC3)c2scc(C(=O)O)c2n1 (single isomer, unassigned) [Compound 122] | > 7.00 | > 5.30 | – |
| Cc1cc(-c2cc(Cl)ccc2OCCn2c(C)nc3c(c2=O)C[C@@H](N2CC4(CCC(F)(F)CC4)C2)CC3)c2scc(C(=O)O)c2n1 (single isomer, unassigned) [Compound 128] | > 7.00 | > 5.30 | – |
| Cc1cc(-c2cc(Cl)ccc2OCCn2c(C)nc3c(c2=O)C[C@H](N2CC4(CCC(F)(F)CC4)C2)CC3)c2scc(C(=O)O)c2n1 (single isomer, unassigned) [Compound 131] | > 7.00 | > 5.30 | – |
| Cc1cc(-c2cc(Cl)ccc2OCCn2c(C)nc3c(c2=O)CC(N2CCC(OC(F)(F)F)CC2)CC3)c2scc(C(=O)O)c2n1 (single isomer, unassigned) [Compound 135] | > 7.00 | > 5.30 | – |
| Cc1cc(-c2cc(Cl)ccc2OCCn2c(C)nc3c(c2=O)C[C@H](N2CCC[C@]4(C2)CC4(F)F)CC3)c2scc(C(=O)O)c2n1 (single isomer, unassigned) [Compound 137] | > 7.00 | > 5.30 | – |
| Cc1cc(-c2cc(Cl)ccc2OCCn2c(C)nc3c(c2=O)C[C@@H](N(C)[C@H]2CC[C@@](C)(O)C2)CC3)c2scc(C(=O)O)c2n1 (single isomer, unassigned) [Compound 184] | > 7.00 | < 4.70 | – |
| Cc1cc(-c2cc(Cl)ccc2OCCn2c(C)nc3c(c2=O)C[C@@H](N(C)C[C@H]2C[C@](C)(O)C2)CC3)c2scc(C(=O)O)c2n1 (single isomer, unassigned) [Compound 211] | > 7.00 | < 4.70 | – |
| COc1cc(CN(C)C2CCc3nc(C)n(CCOc4ccc(Cl)cc4-c4cc(C)nc5c(C(=O)NS(C)(=O)=O)csc45)c(=O)c3C2)ccn1 (single isomer, unassigned) [Compound 220] | > 7.00 | – | > 5.30 |
| Cc1cc(-c2cc(Cl)ccc2OCCn2c(C)nc3c(c2=O)C[C@@H](N(C)[C@H]2CC[C@@](C)(O)CC2)CC3)c2scc(C(=O)O)c2n1 (single isomer, unassigned) [Compound 225] | > 7.00 | < 4.70 | – |
| Cc1cc(-c2cc(Cl)ccc2OCCn2c(C)nc3c(c2=O)C[C@@H](N(C)[C@H]2CC[C@](C)(O)CC2)CC3)c2scc(C(=O)O)c2n1 (single isomer, unassigned) [Compound 226] | > 7.00 | < 4.70 | – |
| Cc1cc(-c2ccc(Cl)cc2OCCn2c(C)nc3c(c2=O)C[C@@H](N(C)[C@H]2C[C@@](C)(O)C2)CC3)c2scc(C(=O)O)c2n1 (single isomer, unassigned) [Compound 228] | > 7.00 | < 4.70 | – |
| Cc1cc(-c2cc(Cl)c(=O)[nH]c2OCCn2c(C)nc3c(c2=O)CC(N(C)C2CC2)CC3)c2scc(C(=O)O)c2n1 (single isomer, unassigned) [Compound 233] | 5.30 to 6.30 | < 4.70 | – |
| Cc1cc(-c2cc(Cl)c(=O)[nH]c2OCCn2c(C)nc3c(c2=O)CC(N(C)C2CC2)CC3)c2scc(C(=O)O)c2n1 (single isomer, unassigned) [Compound 234] | 5.30 to 6.30 | – | < 4.70 |
| Cc1cc(-c2cc(Cl)ccc2OCCn2c(C)nc3c(c2=O)CC(N(C)Cc2ccc(=O)[nH]c2)CC3)c2scc(C(=O)O)c2n1 (single isomer, unassigned) [Compound 236] | > 7.00 | – | < 4.70 |
| Cc1cc(-c2cc(Cl)c(=O)[nH]c2OCCn2c(C)nc3c(c2=O)CC(N(C)CC2CC(F)(F)C2)CC3)c2scc(C(=O)O)c2n1 (single isomer, unassigned) [Compound 237] | 5.30 to 6.30 | < 4.70 | – |
| Cc1cc(-c2cc(Cl)c(=O)[nH]c2OCCn2c(C)nc3c(c2=O)CC(N(C)CC2CC(F)(F)C2)CC3)c2scc(C(=O)O)c2n1 (single isomer, unassigned) [Compound 238] | 5.30 to 6.30 | – | < 4.70 |
| Cc1cc(-c2cc(Cl)ccc2OCCn2c(C)nc3c(c2=O)C[C@@H](N2CCC(OC(F)F)CC2)CC3)c2scc(C(=O)O)c2n1 (single isomer, unassigned) [Compound 360] | > 7.00 | > 5.30 | – |

From patent publication US20240246918A1, “COMPOUNDS AND COMPOSITIONS AS EIF4E INHIBITORS AND THE USES THEREOF” (Ribometrix, Inc., priority 2022, published 2024)
